Laboratory results reported in patent publication US11147847B2, “Extracts from plants of the Moringaceae family and methods of making” (Rutgers, The State University of New Jersey, priority 2013, dated 2021).

Assays:
[1] = Accelerated stability of MICs in moringa extract at 37° C. (LCMS); assay type: physicochemical; conditions: moringa extract stored at 37° C. for 30 days, compared to day 0
RAW 264.7 macrophages = test: MTT-based cell viability assay; conditions: concentrations tested in anti-inflammatory assays
Description: The effect of the treatments on cell viability was measured using MTT [3-(4,5-dimethyl-2-thiazolyl)-2,5-diphenyltetrazolium bromide] (TCI, Portland, Oreg.) (Mosmann, 1983). MTT (5 mg/mL) was dissolved in PBS (Cayman Chemical, Ann Arbor, Mich.), filtered through a 0.22 μm membrane and added to treated cells during the last 3-4 hours of treatment. Media were carefully aspirated and cells were dissolved in DMSO. The absorbance was read at 570 nm.

HII4E liver cells = test: In vitro gluconeogenesis: glucose production in liver cells; assay type: cell-based, rat; conditions: same concentrations as SF
Description: (§1) H4IIE rat hepatoma cells (CRL-1548, American Type Culture Collection, Manassas, Va.) were assayed for glucose production as previously described (21). Cell viability was measured by the 3-(4,5-Dimethyl-2-thiazolyl)-2,5-diphenyltetrazolium bromide (MTT; TCI, Portland, Oreg.) assay (22). RNA extraction, cDNA synthesis and qPCR for gene expression of PEPCK and G6P were performed as described above.

iNOS = test: LPS-induced iNOS gene expression in RAW 264.7 macrophages (qPCR); assay type: cell-based; conditions: 1 and 5 μM; LPS-induced RAW 264.7
Description: (§2) All reagents were supplied from Sigma-Aldrich Co. (St. Louis, Mo.) unless otherwise noted. RAW 264.7 macrophages (ATCC TIB-71) were maintained in Dulbecco's modified Eagle's medium (Caisson, North Logan, Utah) supplemented with 100 U/mL penicillin, 100 μg/mL streptomycin, and 10% fetal bovine serum. Cells were incubated at 37° C. in a 5% CO2 humidified atmosphere and subcultured by cell scraping. For experiments, RAW cells were plated at a density of 4×10^5 cells/mL in 24-well plates. Cells were incubated overnight (18 h), washed with warm 37° C. PBS, and medium was replaced fresh DMEM medium. […] Lipopolysaccharide (1 μg/mL) was added after 2 h incubation with treatments to elicit inflammatory responses. Cells were treated in duplicate or triplicate. After an additional 6 h incubation period, media were collected and cells were washed with PBS prior to collection in TRIzol® Reagent (Ambion, Life Technologies). […]
(§3) Total RNA was extracted from cells according to manufacturer's specifications. […] RNA integrity was evaluated by running about 1 μg of RNA on a 1% agarose gel. […]
(§4) Quantitative PCR amplifications were performed on an ABI 7300 Real-Time PCR System (Applied Biosystems) with the following thermal cycler profile: 2 minutes, 50° C.; 10 minutes, 95° C.; 15 seconds, 95° C.; 1 minute, 60° C. for the dissociation stage; 15 seconds, 95° C.; 1 minutes, 60° C.; and 15 seconds, 95° C. […]

IL-1β = test: LPS-induced IL-1β gene expression in RAW 264.7 macrophages (qPCR); assay type: cell-based; conditions: 1 and 5 μM; LPS-induced RAW 264.7
Description: as §2, §3, §4

TNF-α = test: LPS-induced TNF-α gene expression in RAW 264.7 macrophages (qPCR); assay type: cell-based; conditions: any of the concentrations tested; LPS-induced RAW 264.7
Description: as §2, §3, §4

[2] = 1:5 ratio preparations, rotoevaporation 1 hour at 50° C., compared to freeze-dried samples
Text: Drying the 1:5 ratio preparations can be achieved by rotoevaporation, followed by freeze-drying or spray drying. […] Further concentration of MICs and removal of sugars from the extract can also be performed with solid phase-extraction (SPE).

IL-6 = test: LPS-induced IL-6 gene expression in RAW 264.7 macrophages (qPCR); assay type: cell-based; conditions: 5 μM; LPS-induced RAW 264.7
Description: as §2, §3, §4

[3] = In vitro gluconeogenesis: glucose production in liver cells; assay type: cell-based, rat; conditions: Rattus norvegicus; range of 5 concentrations, HII4E liver cells
Description: as §1

| SMILES | degradation of MIC in moringa extract [1] | cytotoxicity (MTT-based cell viability) (RAW 264.7 macrophages) | glucose production, activity compared to SF (HII4E liver cells) | mRNA expression of iNOS (iNOS) | mRNA expression of IL-1β (IL-1β) | TNF-α gene expression (TNF-α) | loss of MIC under rotoevaporation conditions [2] | IL-6 gene expression (IL-6) | IC50 [3] |
| --- | --- | --- | --- | --- | --- | --- | --- | --- | --- |
| C[C@@H]1O[C@@H](Oc2ccc(CN=C=S)cc2)[C@H](O)[C@H](O)[C@H]1O [MIC-1, 4-[(α-rhamnosyloxy)benzyl]isothiocyanate] | approximately 80% | no signs of cytotoxicity | superior activity to SF | significant reduction | significant reduction | no reduction | No significant loss | decrease IL-6 gene expression significantly |  |
| CC(=O)O[C@@H]1[C@@H](O)[C@@H](O)[C@H](Oc2ccc(CN=C=S)cc2)O[C@H]1C [MIC-4, 4-[(4′-O-acetyl-α-rhamnosyloxy)benzyl]isothiocyanate] | ~20% | no signs of cytotoxicity | superior activity to SF | significant reduction | significant reduction | no reduction | No significant loss |  |  |
| CN(C)C(=N)N=C(N)N [metformin, reference compound] |  |  |  |  |  |  |  |  | 800 µM |
